The target of this assay is PARP1 (Homo sapiens, UniProt P09874). The experiment in a line: enzyme inhibition assay with recombinant human PARP1. Type of assay: biochemical.

What is called IC50 is the midpoint of a concentration-inhibition curve.

PARP1, sequence (P09874 2-1014): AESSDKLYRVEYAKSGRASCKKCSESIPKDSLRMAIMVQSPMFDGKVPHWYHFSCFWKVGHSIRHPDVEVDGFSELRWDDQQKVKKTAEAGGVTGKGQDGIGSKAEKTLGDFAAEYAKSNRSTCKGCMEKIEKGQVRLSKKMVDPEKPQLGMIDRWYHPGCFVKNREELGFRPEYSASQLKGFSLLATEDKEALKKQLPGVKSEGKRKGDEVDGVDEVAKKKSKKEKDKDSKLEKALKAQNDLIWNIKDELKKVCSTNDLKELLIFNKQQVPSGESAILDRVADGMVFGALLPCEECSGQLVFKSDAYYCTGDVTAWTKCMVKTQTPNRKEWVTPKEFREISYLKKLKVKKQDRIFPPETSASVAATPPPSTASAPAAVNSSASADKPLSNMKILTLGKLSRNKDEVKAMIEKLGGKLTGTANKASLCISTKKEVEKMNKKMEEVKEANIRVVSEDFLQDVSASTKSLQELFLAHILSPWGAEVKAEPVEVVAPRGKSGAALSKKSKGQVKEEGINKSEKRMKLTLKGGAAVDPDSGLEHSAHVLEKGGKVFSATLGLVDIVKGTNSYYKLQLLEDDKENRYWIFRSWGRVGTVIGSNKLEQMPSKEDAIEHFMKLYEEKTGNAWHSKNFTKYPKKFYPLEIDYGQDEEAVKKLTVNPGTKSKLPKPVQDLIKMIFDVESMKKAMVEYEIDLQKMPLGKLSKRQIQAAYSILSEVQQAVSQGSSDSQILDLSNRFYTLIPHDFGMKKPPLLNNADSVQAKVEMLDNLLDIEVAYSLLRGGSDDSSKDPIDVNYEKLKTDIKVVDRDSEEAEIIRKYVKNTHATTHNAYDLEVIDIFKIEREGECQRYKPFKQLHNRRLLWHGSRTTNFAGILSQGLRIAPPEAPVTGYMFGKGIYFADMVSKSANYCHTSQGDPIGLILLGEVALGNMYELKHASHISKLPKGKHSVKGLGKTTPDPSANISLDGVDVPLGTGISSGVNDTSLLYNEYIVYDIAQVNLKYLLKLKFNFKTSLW

Turning to Olaparib-SiR-Me [compound 6], the IC50 turned out to be 0.0992 µM.
As for Olaparib-SiR-COOH [compound 10], the IC50 was 0.1 µM.

Source of the values: publication PMC4028821 (Chemical communications (Cambridge, England), 2014).
